Results as given in patent US7776570B2, “L-amino acid amide asymmetric hydrolase and DNA encoding the same” (Mitsubishi Gas Chemical Company, Inc., priority 2004, dated 2010).

Key:
X. flavus living cells = test: Asymmetric hydrolysis of 2-methylcysteine amide racemic mixture by using a wild-type microorganism; format: biochemical, Xanthobacter flavus; conditions: for 2-methylcysteine produced: 30° C., 24 hours, HPLC condition B; for optical purity of the L-amino acid: supernatant, HPLC condition A
Method: A medium having a composition as shown in the following Table 5 was prepared, and 200 mL of the medium was poured into a 1-L conical flask and sterilized. After that, X. flavus was inoculated thereto and shaking culture was performed at 30° C. for 170 hours. Subsequently, the culture solution was subjected to centrifugation, to thereby obtain living cells corresponding to 0.1 g of dry cells.
10.0 g (58.6 mmol) of racemic mixture of 2-methylcysteine amide hydrochloride was dissolved into 300 mL of 50 mM phosphate buffer (pH 7.0). After that, the mixture was poured into a 500-mL flask, which was added with an aqueous manganese chloride solution such that the concentration of a divalent Mn ion became 10 ppm, and further added with the living cells corresponding to 0.01 g of dry cells, followed by stirring culture at 30° C. for 24 hours under a nitrogen stream to allow a hydrolysis reaction to proceed. After completion of the reaction, the reaction solution was subjected to centrifugation to remove the cells, and the supernatant was analyzed under the HPLC condition B as shown in the following Table 6.
10 L of the culture solution obtained after culture in the medium composition in Comparative Example 1 was subjected to centrifugation, to thereby obtain living cells corresponding to 5 g of dry cells of X. flavus. 10.0 g (58.6 mmol) of a racemic mixture of 2-methylcysteine amide hydrochloride was dissolved into 300 mL of 50 mM phosphate buffer (pH 7.0). After that, the mixture was poured into 500-mL flask, which was added with an aqueous manganese chloride solution such that the concentration of a divalent Mn ion became 10 ppm, and further added with the living cells corresponding to 5 g of dry cells, followed by stirring culture at 30° C. for 24 hours under a nitrogen stream to allow a hydrolysis reaction to proceed. After completion of the reaction, the reaction solution was subjected to centrifugation to remove the cells therefrom, and the supernatant was analyzed under the HPLC condition B. As a result, it was confirmed that 28.2 mmol of 2-methylcysteine was produced. In addition, the supernatant was analyzed under the HPLC condition A, and as a result, the optical purity of the L-amino acid was not less than 98% e.e.
A biochemical asymmetric hydrolysis reaction was performed in the same manner as in Comparative Example 2 except that the aqueous manganese chloride solution was not added. The reaction was performed at 30° C. for 24 hours. After completion of the reaction, the reaction solution was subjected to centrifugation to remove the cells therefrom, and then the supernatant was analyzed under the HPLC condition B. As a result, it was confirmed that 13.9 mmol of 2-methylcysteine was produced. In addition, the supernatant was analyzed under the HPLC condition A, and as a result, the optical purity of the L-amino acid was not less than 98% e.e.

[1] = tested on: L-amino acid amide asymmetric hydrolase (transformant strain pMCA1/JM109 cells); test: Asymmetric hydrolysis of racemic amino acid amides by using the transformant pMCA1/JM109; format: biochemical, Xanthobacter flavus; conditions: 0.1% substrate, 50 mM phosphate buffer pH 7.0, 30° C.
Method: A medium having a composition as shown in the following Table 3 was prepared, and 200 mL of the medium was poured into 1-L conical flask and sterilized. After that, the medium was added with 50 μg/mL ampicillin and then inoculated with the transformant strain pMCA1/JM109, followed by shaking culture at 37° C. for 15 hours. Subsequently, the culture solution was subjected to centrifugation, to thereby obtain living cells corresponding to 0.1 g of dry cells.
Enzymatic reactions were performed by using a culture solution of the transformant strain pMCA 1/JM109 which had been cultured in the same manner as in Example 7 and a racemic mixture of various amino acid amides as a substrate. Each of the substrate compound was dissolved into 50 mM phosphate buffer (pH 7.0) such that the substrate concentration was adjusted to 0.1%, and the substrate solution was added with the cells to perform an enzymatic reaction at 30° C. […] In any of the reactions, selectivity of hydrolysis is selective to an L-form, and optical purity of the produced L-amino acid was not less than 98% e.e.

[2] = 5 g dry cells, no manganese chloride added
[3] = substrate weight/dry cell weight 0.01, reaction time 5 hr
[4] = substrate weight/dry cell weight 0.01, reaction time 24 hr
[5] = substrate weight/dry cell weight 0.1, reaction time 24 hr

C[C@](N)(CS)C(N)=O.Cl (racemic) [2-methylcysteine amide, 2-methylcysteine amide hydrochloride]
2-methylcysteine produced (X. flavus living cells; 0.01 g dry cells, 58.6 mmol substrate, 10 ppm divalent Mn ion): no 2-methylcysteine as a product was observed | 2-methylcysteine produced (X. flavus living cells; 5 g dry cells, 58.6 mmol substrate, 10 ppm divalent Mn ion): 28.2 mmol | optical purity of the L-amino acid (X. flavus living cells; 5 g dry cells, 10 ppm divalent Mn ion): not less than 98 % e.e. | 2-methylcysteine produced (X. flavus living cells; [2]): 13.9 mmol | optical purity of the L-amino acid (X. flavus living cells; [2]): not less than 98 % e.e.

NC(=O)[C@@H](N)Cc1ccccc1 (racemic) [Phenylalanine amide]
Reaction rate [1, 3]: 47.8%

NC(=O)C(N)c1ccccc1 (racemic) [Phenylglycine amide]
Reaction rate [1, 3]: 48.8%

CC(C)[C@H](N)C(N)=O (racemic) [Valine amide]
Reaction rate [1, 4]: 44.3%

CC(C)(S)[C@H](N)C(N)=O (racemic) [penicillamine amide]
Reaction rate [1, 3]: 44.9%

CC(C)(C)[C@H](N)C(N)=O (racemic) [t-leucine amide]
Reaction rate [1, 5]: 44.4%

CCC(N)C(N)=O (stereo not shown) [2-amino butyrate amide]
Reaction rate ([1]; substrate weight/dry cell weight 0.1, reaction time 5 hr): 49.2%

CC1(C)SCNC1C(N)=O (stereo not shown) [5,5-dimethylthiazolidin-4-carboxylate amide]
Reaction rate [1, 5]: 47.0%

Allicin amide ethylene acetal
Reaction rate [1, 4]: 44.3%
